# In patent publication US12098145B2 (Libra Therapeutics, Inc., priority 2022, dated 2024):
# Target: T1, TRPML1 (Homo sapiens, UniProt Q9GZU1)
# T1 construct: expressed in transfected cells; host or cells: HEK T-REx cells stably expressing GCaMP6f and TRPML1
# Assay: Cellular TRPML1 assay (FLIPR, GCaMP6f calcium read-out)
# Assay type: cell-based
# Conditions: HEKT-REx/GCaMP6f/TRPML1 cells, FLIPR TETRA, kinetic response over 300 seconds; for EC50: read-out: TRPML1 FLIPR pEC50 (converted)
# Description: Example A: Cellular TRPML1 Assay
# The final clone for the TRPML1 assay is HEKT-REx/GCaMP6f/TRPML1. GCaMP6f is a genetically encoded calcium indicator that is stably expressed in this cell line and used as a fluorescent read-out.
# Experiments were performed in 384 MTP format. Cells are seeded at 15000 cells/well in 20 μl/well of Optimem+0.5% FBS without selection antibiotics. Twenty-four hours later, cells are assayed for the response to various compounds using the Ca^2+ sensitive GCaMP6f protein stably expressed in the cells as readout.
# The experiment was performed in a 384-well format according to the following procedures: • 24 h after seeding, the cells were pre-incubated at room temperature for about 10 min. • Started the experiment at the FLIPR^TETRA by injecting 10 μL/w of 3× concentrated test compounds and controls in Ca^2+ free Tyrode's buffer. Monitored the kinetic response over a period of 300 seconds. • Final DMSO concentration: 0.5%
# Data from FLIPR^TETRA measurements were analyzed with the Genedata Screener© software.
# T1 sequence (Q9GZU1 whole entry): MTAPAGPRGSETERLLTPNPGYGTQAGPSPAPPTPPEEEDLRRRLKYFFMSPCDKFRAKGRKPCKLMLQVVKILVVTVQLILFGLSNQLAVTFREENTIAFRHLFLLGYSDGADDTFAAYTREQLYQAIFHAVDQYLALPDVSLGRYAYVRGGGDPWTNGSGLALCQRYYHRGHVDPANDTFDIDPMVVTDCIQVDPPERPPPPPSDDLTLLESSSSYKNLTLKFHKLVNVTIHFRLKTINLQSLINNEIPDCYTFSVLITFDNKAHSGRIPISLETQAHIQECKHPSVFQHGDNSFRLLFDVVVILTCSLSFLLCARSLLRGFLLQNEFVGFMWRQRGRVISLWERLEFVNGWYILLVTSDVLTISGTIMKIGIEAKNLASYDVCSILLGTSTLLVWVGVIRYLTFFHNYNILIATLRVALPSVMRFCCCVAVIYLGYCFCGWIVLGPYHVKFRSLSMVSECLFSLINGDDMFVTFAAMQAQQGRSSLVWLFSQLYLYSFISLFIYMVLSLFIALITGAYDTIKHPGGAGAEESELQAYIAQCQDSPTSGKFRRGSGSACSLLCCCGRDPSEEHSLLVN
Structure (SMILES),EC50 [µM],TRPML1 FLIPR pEC50
"COCCN(CC(C)C)c1nc(C(=O)Nc2cc(F)c(O[C@@H]3C[C@@H]4C[C@@H]4C3)c(F)c2)c(CC(F)(F)F)o1 [Example 147, N-(4-(cis-bicyclo[3.1.0]hexan-3-yloxy)-3,5-difluorophenyl)-2-(isobutyl(2-methoxyethyl)amino)-5-(2,2,2-trifluoroethyl)oxazole-4-carboxamide]",1 to 10,–
"O=C(Nc1ccc(OC2CCCC2)c(F)c1)c1nc(N2CCC3(CC3)C2)oc1CC(F)(F)F [Example 57, N-(4-(cyclopentyloxy)-3-fluorophenyl)-2-(5-azaspiro[2.4]heptan-5-yl)-5-(2,2,2-trifluoroethyl)oxazole-4-carboxamide]",1 to 10,–
"O=C(Nc1ccc(OC2CCCC2(F)F)c(F)c1)c1nc(N2CCc3ccccc32)oc1CC(F)(F)F (stereo not drawn) [Example 5, N-(4-((2,2-difluorocyclopentyl)oxy)-3-fluorophenyl)-2-(indolin-1-yl)-5-(2,2,2-trifluoroethyl)oxazole-4-carboxamide]",1 to 10,–
"CCc1oc(N2CC(C)(OC)C2)nc1C(=O)Nc1ccc(O[C@@H]2C[C@@H]3C[C@@H]3C2)c(C)c1 [Example 248, N-(4-(cis-bicyclo[3.1.0]hexan-3-yloxy)-3-methylphenyl)-5-ethyl-2-(3-methoxy-3-methylazetidin-1-yl)oxazole-4-carboxamide]",1 to 10,–
"O=C(Nc1ccc(O[C@H]2COCC2(F)F)c(F)c1)c1nc(N2CCCC2)oc1CC(F)(F)F [Example 69, (S)—N-(4-((4,4-difluorotetrahydrofuran-3-yl)oxy)-3-fluorophenyl)-2-(pyrrolidin-1-yl)-5-(2,2,2-trifluoroethyl)oxazole-4-carboxamide]",0.01 to 1,–
"CCC1(CC)CN(c2nc(C(=O)Nc3ccc(O[C@@H]4C[C@@H]5C[C@@H]5C4)c(O)c3)c(CC(F)(F)F)o2)C1 [Example 270, N-(4-(cis-bicyclo[3.1.0]hexan-3-yloxy)-3-hydroxyphenyl)-2-(3,3-diethylazetidin-1-yl)-5-(2,2,2-trifluoroethyl)oxazole-4-carboxamide]",1 to 10,–
"CCc1oc(N2CC(CC)(OC)C2)nc1C(=O)Nc1cc(F)c(OC2CCOC2)c(F)c1 (stereo not drawn) [Example 234, N-(3,5-difluoro-4-((tetrahydrofuran-3-yl)oxy)phenyl)-5-ethyl-2-(3-ethyl-3-methoxyazetidin-1-yl)oxazole-4-carboxamide]",1 to 10,–
"CN(c1c(F)cc(NC(=O)c2nc(N3CCCC3)oc2CC(F)(F)F)cc1F)C1CCCC1(F)F (stereo not drawn) [Example 81, N-{4-[(2,2-difluorocyclopentyl)(methyl)amino]-3,5-difluorophenyl}-2-(pyrrolidin-1-yl)-5-(2,2,2-trifluoroethyl)oxazole-4-carboxamide]",1 to 10,–
"CCC1(CC)CN(c2nc(C(=O)Nc3cc(F)c(O[C@@H]4C[C@@H]5C[C@@H]5C4)c(F)c3)c(CN(C)C)o2)C1 [Example 301, N-(4-(cis-bicyclo[3.1.0]hexan-3-yloxy)-3,5-difluorophenyl)-2-(3,3-diethylazetidin-1-yl)-5-((dimethylamino)methyl)oxazole-4-carboxamide]",1 to 10,–
"O=C(Nc1cc(F)c2c(c1)CCN2C1CC2CC2C1)c1nc(N2CCC3(COC3)C2)oc1CC(F)(F)F (stereo not drawn) [Example 314, N-(1-(bicyclo[3.1.0]hexan-3-yl)-7-fluoroindolin-5-yl)-2-(2-oxa-6-azaspiro[3.4]octan-6-yl)-5-(2,2,2-trifluoroethyl)oxazole-4-carboxamide]",1 to 10,–
"CCC1(CC)CN(c2nc(C(=O)Nc3cc(F)c(O[C@@H]4C[C@@H]5C[C@@H]5C4)c(F)c3)c(CN3CCC3)o2)C1 [Example 300, 5-(azetidin-1-ylmethyl)-N-(4-(cis-bicyclo[3.1.0]hexan-3-yloxy)-3,5-difluorophenyl)-2-(3,3-diethylazetidin-1-yl)oxazole-4-carboxamide]",1 to 10,–
"Cc1oc(N2CCC(F)(F)C2)nc1C(=O)Nc1ccc(N2CCCCC2)c(F)c1 [Example 121, 2-(3,3-difluoropyrrolidin-1-yl)-N-(3-fluoro-4-(piperidin-1-yl)phenyl)-5-methyloxazole-4-carboxamide]",–,C (C = 5.0-4.0)
"COC1(C)CN(c2nc(C(=O)Nc3cc(O)c(O[C@@H]4C[C@@H]5C[C@@H]5C4)c(F)c3)c(CC(F)(F)F)o2)C1 [Example 267, N-(4-(cis-bicyclo[3.1.0]hexan-3-yloxy)-3-fluoro-5-hydroxyphenyl)-2-(3-methoxy-3-methylazetidin-1-yl)-5-(2,2,2-trifluoroethyl)oxazole-4-carboxamide]",1 to 10,–
"CCc1oc(N2CC(CC)(CC)C2)nc1C(=O)Nc1cc(F)c(OC2CCCOC2)c(F)c1 (stereo not drawn) [Example 236, 2-(3,3-diethylazetidin-1-yl)-N-(3,5-difluoro-4-((tetrahydro-2H-pyran-3-yl)oxy)phenyl)-5-ethyloxazole-4-carboxamide]",0.01 to 1,–
"Cc1oc(N2CCC(C)C2)nc1C(=O)Nc1ccc(N2CCCCC2)c(F)c1 (stereo not drawn) [Example 122, N-(3-fluoro-4-(piperidin-1-yl)phenyl)-5-methyl-2-(3-methylpyrrolidin-1-yl)oxazole-4-carboxamide]",10 to 100,–
"O=C(Nc1cc(F)c(O[C@@H]2C[C@@H]3C[C@@H]3C2)c(F)c1)c1nc(N2CC3(CCOCC3)C2)oc1CC(F)(F)F [Example 188, N-(4-(cis-bicyclo[3.1.0]hexan-3-yloxy)-3,5-difluorophenyl)-2-(7-oxa-2-azaspiro[3.5]nonan-2-yl)-5-(2,2,2-trifluoroethyl)oxazole-4-carboxamide]",0.01 to 1,–
"CCCc1oc(N2CCCC2)nc1C(=O)Nc1cc(F)c(O[C@@H]2C[C@@H]3C[C@@H]3C2)c(F)c1 [Example 274, N-(4-(cis-bicyclo[3.1.0]hexan-3-yloxy)-3,5-difluorophenyl)-5-propyl-2-(pyrrolidin-1-yl)oxazole-4-carboxamide]",0.01 to 1,–
"O=C(Nc1ccc(OCC(F)(F)F)c(F)c1)c1nc(N2CCCC2)oc1CC(F)(F)F [Example 42, N-(3-fluoro-4-(2,2,2-trifluoroethoxy)phenyl)-2-(pyrrolidin-1-yl)-5-(2,2,2-trifluoroethyl)oxazole-4-carboxamide]",1 to 10,–
"O=C(Nc1cc(F)c(OC2CC3(CCC3)C2)c(F)c1)c1nc(N2CCCC2)oc1CC(F)(F)F [Example 139, N-(3,5-difluoro-4-(spiro[3.3]heptan-2-yloxy)phenyl)-2-(pyrrolidin-1-yl)-5-(2,2,2-trifluoroethyl)oxazole-4-carboxamide]",10 to 100,–
"O=C(Nc1ccc(OC2CCCC2(F)F)c(F)c1)c1nc(N2CC(F)(F)C2)oc1CC(F)(F)F (stereo not drawn) [Example 16, 2-(3,3-difluoroazetidin-1-yl)-N-{4-[(2,2-difluorocyclopentyl)oxy]-3-fluorophenyl}-5-(2,2,2-trifluoroethyl)oxazole-4-carboxamide]",0.01 to 1,–
"CCCN(CCOC)c1nc(C(=O)Nc2cc(F)c(O[C@@H]3C[C@@H]4C[C@@H]4C3)c(F)c2)c(CC(F)(F)F)o1 [Example 152, N-(4-(cis-bicyclo[3.1.0]hexan-3-yloxy)-3,5-difluorophenyl)-2-((2-methoxyethyl)(propyl)amino)-5-(2,2,2-trifluoroethyl)oxazole-4-carboxamide]",10 to 100,–
"CCC1(CC)CN(c2nc(C(=O)Nc3ccc(N4CCC5CC5C4)c(F)c3)c(CC(F)(F)F)o2)C1 (stereo not drawn) [Example 212, N-(4-(3-azabicyclo[4.1.0]heptan-3-yl)-3-fluorophenyl)-2-(3,3-diethylazetidin-1-yl)-5-(2,2,2-trifluoroethyl)oxazole-4-carboxamide]",0.01 to 1,–
"O=C(Nc1ccc(OC2CC3C(C2)C3(F)F)c(F)c1)c1nc(N2CCCC2)oc1CC(F)(F)F (stereo not drawn) [Example 46, N-[4-({6,6-difluorobicyclo[3.1.0]hexan-3-yl}oxy)-3-fluorophenyl]-2-(pyrrolidin-1-yl)-5-(2,2,2-trifluoroethyl)oxazole-4-carboxamide]",1 to 10,–
"CC1(C)CN(c2nc(C(=O)Nc3cc(F)c(OC4COCC4(F)F)c(F)c3)c(CC(F)(F)F)o2)C1 (stereo not drawn) [Example 70, N-{4-[(4,4-difluorotetrahydrofuran-3-yl)oxy]-3,5-difluorophenyl}-2-(3,3-dimethylazetidin-1-yl)-5-(2,2,2-trifluoroethyl)oxazole-4-carboxamide]",0.01 to 1,–
"CCc1oc(N2CC(CC)(OC)C2)nc1C(=O)Nc1ccc(O[C@@H]2C[C@@H]3C[C@@H]3C2)c(F)c1 [Example 246, N-(4-(cis-bicyclo[3.1.0]hexan-3-yloxy)-3-fluorophenyl)-5-ethyl-2-(3-ethyl-3-methoxyazetidin-1-yl)oxazole-4-carboxamide]",0.01 to 1,–
"N#CC1CN(c2nc(C(=O)Nc3ccc(OC4CCCC4(F)F)c(F)c3)c(CC(F)(F)F)o2)C1 (stereo not drawn) [Example 2, 2-(3-cyanoazetidin-1-yl)-N-{4-[(2,2-difluorocyclopentyl)oxy]-3-fluorophenyl}-5-(2,2,2-trifluoroethyl)-1,3-oxazole-4-carboxamide]",1 to 10,–
"O=C(Nc1ccc(OC2CCCC2(F)F)c(F)c1)c1nc(N2C3CCC2CC3)oc1CC(F)(F)F (stereo not drawn) [Example 9, 2-{7-azabicyclo[2.2.1]heptan-7-yl}-N-{4-[(2,2-difluorocyclopentyl)oxy]-3-fluorophenyl}-5-(2,2,2-trifluoroethyl)oxazole-4-carboxamide]",1 to 10,–
